Laboratory results taken from ChEMBL document CHEMBL1201862, “PubChem BioAssay data set” (2004).
The source made the active and inactive calls.

Assays:
[1] = molecular target: T1, DNA repair and recombination protein RAD54-like (Homo sapiens, UniProt Q92698); test: RAD54 Holliday junction migration blockers – biochemical, fluorescence, cherry-picked samples, dose series, confirmation (AID 651657); assay type: functional
T1 sequence (Q92698 whole entry): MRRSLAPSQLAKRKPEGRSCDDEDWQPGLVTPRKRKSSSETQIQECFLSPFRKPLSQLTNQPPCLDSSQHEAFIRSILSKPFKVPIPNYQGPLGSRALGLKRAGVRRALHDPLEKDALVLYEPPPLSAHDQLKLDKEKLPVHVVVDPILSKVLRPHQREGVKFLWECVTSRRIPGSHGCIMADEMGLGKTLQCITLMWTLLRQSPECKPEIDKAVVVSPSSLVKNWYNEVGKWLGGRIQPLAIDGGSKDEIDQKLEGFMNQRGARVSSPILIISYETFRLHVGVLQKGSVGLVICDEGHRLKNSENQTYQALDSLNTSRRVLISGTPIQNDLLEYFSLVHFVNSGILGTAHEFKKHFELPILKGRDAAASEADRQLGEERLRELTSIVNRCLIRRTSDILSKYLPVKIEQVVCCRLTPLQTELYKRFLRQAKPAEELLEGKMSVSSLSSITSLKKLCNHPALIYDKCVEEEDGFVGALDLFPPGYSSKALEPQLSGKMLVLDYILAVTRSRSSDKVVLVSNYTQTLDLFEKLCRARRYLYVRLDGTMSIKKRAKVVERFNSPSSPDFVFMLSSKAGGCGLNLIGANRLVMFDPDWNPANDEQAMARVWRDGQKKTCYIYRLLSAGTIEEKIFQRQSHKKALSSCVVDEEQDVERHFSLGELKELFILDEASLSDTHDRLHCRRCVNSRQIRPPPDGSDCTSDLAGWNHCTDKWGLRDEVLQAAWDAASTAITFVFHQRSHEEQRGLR

[2] = molecular target: T2, Probable nicotinate-nucleotide adenylyltransferase (Staphylococcus aureus (strain N315), UniProt P65502); assay type: functional, Staphylococcus aureus subsp. aureus N315;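 for IC50 Mean: confirmatory dose-response retesting of NadD inhibitor hits first found in an ultra-high-throughput screen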
Galanin receptor type 3 = molecular target: T3, Galanin receptor type 3 (Homo sapiens, UniProt O60755); test: Fluorescence-based cell-based primary high throughput dose response assay to identify antagonists of the Galanin Receptor 3 (GalR3).; assay type: functional
T3 sequence (O60755 whole entry): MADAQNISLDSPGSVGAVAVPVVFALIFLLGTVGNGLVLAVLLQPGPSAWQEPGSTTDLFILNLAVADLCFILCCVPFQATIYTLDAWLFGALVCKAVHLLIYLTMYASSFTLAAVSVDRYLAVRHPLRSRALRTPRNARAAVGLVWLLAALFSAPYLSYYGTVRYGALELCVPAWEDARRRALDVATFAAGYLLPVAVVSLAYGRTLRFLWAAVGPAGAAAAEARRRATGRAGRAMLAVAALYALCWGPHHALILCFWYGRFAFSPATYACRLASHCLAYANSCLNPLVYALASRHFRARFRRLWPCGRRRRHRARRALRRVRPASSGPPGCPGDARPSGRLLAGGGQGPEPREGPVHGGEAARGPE

Fatty acid synthase [3] = molecular target: T4, Fatty acid synthase (Homo sapiens, UniProt P49327); test: inhibition of human FAS-TE enzyme activity – biochemical, kinetic fluorescence intensity, dose response (AID 624326); assay type: functional;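 note: rate of fluorescence rise from hydrolysis of a fluorogenic O-methyl fluorescein ester substrate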
Fatty acid synthase [4] = molecular target: T4, Fatty acid synthase; test: inhibition of human FAS-TE enzyme activity – biochemical, endpoint fluorescence intensity, uHTS hits, dose response (AID 624327); assay type: functional;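 note: fluorescence from hydrolysis of an O-methyl fluorescein acyl ester substrate by the enzyme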
cells = assay type: functional, cell-based; settings: HEK-CNG
INS1 = test: INS-1E survival protection against cytokine death – cell-based, luminescence, retest, dose response (AID 449756); assay type: functional; settings: Rattus norvegicus;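 note: cell death triggered by IL-1 beta plus TNF-alpha plus IFN-gamma mixture; protective hits raise ATP signal compared with cytokine alone wells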
[5] = molecular target: T2, Probable nicotinate-nucleotide adenylyltransferase; assay type: functional, Staphylococcus aureus subsp. aureus N315; settings: read-out: IC50_Mean
Streptococcus = test: GAS UMAA2166 growth inhibition – luminescence, BacTiterGlo, counter-screen for streptokinase expression inhibitor project, dose response (AID 1915); assay type: functional, organism-based;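 note: potency for reduction of bacterial viability or growth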
[6] = system: Streptococcus sp. 'group A'; test: Streptococcus pyogenes SK(-)GAS viability under kanamycin – luminescence, BacTiterGlo, confirmation, counter-screen for streptokinase expression inhibitor project, dose response (AID 1900); assay type: functional, organism-based
[7] = molecular target: T5, RNA-binding protein pos-1 (Caenorhabditis elegans, UniProt G5EF15); test: disruptors of C. elegans POS-1 RNA interaction – biochemical, fluorescence polarization, dose response (AID 1964);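 note: purified POS-1 fused to maltose binding protein made in E. coli; potency of compounds blocking POS-1 binding to fluorescent RNA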
T5 sequence (G5EF15 whole entry): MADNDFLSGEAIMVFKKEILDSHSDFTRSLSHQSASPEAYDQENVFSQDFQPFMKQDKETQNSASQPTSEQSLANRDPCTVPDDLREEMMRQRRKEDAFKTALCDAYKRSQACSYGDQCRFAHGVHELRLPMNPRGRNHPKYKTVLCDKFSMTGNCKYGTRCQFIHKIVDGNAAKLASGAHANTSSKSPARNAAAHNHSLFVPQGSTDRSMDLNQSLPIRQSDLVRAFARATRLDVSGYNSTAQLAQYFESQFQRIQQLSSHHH

[8] = molecular target: T6, Zinc finger protein mex-5 (Caenorhabditis elegans, UniProt Q9XUB2); test: potency of MEX-5 RNA-binding blockers – biochemical, C. elegans, fluorescence polarization, dose response (AID 1960)
T6 sequence (Q9XUB2 whole entry): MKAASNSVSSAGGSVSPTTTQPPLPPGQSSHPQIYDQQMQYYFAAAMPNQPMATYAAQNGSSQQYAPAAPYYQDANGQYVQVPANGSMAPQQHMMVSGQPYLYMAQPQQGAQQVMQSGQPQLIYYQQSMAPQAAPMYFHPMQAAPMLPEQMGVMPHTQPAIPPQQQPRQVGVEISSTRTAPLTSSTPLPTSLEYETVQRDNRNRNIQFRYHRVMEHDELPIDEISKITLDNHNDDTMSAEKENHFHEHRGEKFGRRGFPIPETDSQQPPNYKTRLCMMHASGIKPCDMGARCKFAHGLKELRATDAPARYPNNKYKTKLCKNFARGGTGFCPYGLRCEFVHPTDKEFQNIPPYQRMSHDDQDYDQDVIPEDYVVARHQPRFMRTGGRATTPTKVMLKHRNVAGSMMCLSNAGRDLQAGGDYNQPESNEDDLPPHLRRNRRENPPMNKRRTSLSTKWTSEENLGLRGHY

[9] = Luminescence Cell-Based Dose Confirmation HTS to Identify Inhibitors of Platelet Dense Granule Release. [Related pubchem assays: 1663 (Primary HTS), 1678 (Summary of Project)]; assay type: functional
Beta-galactosidase = Beta-galactosidase (Escherichia coli, UniProt Q8VNN2); test: Dose response counterscreen for EBI2 assay utilizing the enzyme, b-galactosidase.; assay type: functional
[10] = molecular target: Luciferin 4-monooxygenase (Photinus pyralis, UniProt P08659); test: inhibition of purified Photinus pyralis luciferase – biochemical, luminescence, dose response (AID 1891)
Luciferin 4-monooxygenase, sequence (P08659 whole entry): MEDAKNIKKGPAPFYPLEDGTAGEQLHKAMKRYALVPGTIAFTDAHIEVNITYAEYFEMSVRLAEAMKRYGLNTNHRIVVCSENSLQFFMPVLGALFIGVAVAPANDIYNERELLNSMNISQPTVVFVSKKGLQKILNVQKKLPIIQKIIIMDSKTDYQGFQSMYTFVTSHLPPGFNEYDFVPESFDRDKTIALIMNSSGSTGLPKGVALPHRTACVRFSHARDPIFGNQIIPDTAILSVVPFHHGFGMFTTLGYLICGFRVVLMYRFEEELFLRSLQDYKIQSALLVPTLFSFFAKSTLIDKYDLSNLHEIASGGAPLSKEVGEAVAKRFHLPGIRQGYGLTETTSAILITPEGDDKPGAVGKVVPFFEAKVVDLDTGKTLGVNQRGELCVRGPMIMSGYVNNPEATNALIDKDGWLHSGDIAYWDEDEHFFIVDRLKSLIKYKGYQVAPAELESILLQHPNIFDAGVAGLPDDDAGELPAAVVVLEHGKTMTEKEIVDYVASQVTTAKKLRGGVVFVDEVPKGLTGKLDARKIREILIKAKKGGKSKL

T2 sequence (P65502 whole entry): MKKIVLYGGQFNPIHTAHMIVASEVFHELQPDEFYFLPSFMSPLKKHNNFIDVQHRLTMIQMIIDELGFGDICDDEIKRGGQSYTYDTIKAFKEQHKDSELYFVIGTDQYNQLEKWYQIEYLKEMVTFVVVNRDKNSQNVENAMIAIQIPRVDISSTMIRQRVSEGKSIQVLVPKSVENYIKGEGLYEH
T4 sequence (P49327 whole entry): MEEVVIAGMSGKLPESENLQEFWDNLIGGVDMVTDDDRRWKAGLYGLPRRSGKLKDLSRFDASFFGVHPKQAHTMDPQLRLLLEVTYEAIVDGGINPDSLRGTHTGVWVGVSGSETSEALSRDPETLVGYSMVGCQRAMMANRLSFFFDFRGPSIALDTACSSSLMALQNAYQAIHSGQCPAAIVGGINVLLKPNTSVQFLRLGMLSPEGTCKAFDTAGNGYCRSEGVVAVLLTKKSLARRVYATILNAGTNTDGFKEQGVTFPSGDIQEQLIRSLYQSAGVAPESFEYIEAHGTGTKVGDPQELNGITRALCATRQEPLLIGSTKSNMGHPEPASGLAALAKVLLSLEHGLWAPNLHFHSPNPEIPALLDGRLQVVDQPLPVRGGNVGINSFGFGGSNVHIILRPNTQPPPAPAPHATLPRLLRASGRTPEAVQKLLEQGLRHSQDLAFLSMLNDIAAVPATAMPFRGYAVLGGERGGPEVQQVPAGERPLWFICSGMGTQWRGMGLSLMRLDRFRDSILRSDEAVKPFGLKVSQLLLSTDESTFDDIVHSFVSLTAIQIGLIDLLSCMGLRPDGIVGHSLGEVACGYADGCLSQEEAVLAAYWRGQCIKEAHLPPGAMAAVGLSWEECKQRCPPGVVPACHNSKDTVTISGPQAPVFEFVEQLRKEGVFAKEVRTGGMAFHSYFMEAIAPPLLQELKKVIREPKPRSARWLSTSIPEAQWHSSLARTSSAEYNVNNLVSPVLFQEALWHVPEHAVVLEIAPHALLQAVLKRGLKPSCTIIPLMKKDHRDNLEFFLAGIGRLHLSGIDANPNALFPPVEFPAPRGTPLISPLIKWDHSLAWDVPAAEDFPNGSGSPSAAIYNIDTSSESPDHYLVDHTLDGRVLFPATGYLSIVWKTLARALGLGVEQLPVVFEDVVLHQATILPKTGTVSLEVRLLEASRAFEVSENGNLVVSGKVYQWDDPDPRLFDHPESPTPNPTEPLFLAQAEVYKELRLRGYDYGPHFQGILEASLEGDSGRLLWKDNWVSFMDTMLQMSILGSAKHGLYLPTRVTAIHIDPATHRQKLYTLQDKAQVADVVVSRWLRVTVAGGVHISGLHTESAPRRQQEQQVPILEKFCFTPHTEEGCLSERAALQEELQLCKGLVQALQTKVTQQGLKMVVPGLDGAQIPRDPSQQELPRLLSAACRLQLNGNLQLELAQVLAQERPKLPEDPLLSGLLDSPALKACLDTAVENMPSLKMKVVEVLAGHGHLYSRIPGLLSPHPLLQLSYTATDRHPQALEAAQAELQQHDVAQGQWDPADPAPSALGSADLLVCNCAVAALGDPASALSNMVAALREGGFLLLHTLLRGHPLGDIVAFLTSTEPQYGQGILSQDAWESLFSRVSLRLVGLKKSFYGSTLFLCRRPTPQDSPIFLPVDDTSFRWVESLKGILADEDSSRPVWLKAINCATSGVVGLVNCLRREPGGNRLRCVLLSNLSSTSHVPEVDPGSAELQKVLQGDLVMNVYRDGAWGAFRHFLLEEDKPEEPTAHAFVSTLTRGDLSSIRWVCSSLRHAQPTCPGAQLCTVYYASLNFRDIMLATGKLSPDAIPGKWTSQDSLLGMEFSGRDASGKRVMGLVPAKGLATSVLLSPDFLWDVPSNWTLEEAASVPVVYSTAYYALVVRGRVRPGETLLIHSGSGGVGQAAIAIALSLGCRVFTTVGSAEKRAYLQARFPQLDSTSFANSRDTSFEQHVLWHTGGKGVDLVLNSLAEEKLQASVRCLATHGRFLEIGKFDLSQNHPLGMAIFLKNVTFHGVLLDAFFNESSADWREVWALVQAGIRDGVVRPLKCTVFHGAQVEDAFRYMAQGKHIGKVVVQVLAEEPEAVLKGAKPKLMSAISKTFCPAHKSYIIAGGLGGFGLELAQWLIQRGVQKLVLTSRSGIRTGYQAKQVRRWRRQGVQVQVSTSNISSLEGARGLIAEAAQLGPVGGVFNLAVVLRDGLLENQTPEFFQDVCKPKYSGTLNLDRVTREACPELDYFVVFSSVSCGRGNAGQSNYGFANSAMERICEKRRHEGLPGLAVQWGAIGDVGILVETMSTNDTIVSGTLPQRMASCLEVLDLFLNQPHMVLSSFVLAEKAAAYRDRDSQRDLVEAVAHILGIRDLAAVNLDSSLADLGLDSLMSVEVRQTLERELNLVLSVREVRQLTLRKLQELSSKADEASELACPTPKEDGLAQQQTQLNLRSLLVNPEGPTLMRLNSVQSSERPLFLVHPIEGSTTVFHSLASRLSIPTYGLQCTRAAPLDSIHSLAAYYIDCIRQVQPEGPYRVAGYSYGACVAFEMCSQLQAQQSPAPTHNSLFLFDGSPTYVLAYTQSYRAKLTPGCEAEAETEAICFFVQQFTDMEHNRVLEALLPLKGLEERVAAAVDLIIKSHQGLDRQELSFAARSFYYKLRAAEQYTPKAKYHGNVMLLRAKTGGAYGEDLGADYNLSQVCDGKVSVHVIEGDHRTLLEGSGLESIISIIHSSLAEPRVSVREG
Beta-galactosidase, sequence (Q8VNN2 whole entry): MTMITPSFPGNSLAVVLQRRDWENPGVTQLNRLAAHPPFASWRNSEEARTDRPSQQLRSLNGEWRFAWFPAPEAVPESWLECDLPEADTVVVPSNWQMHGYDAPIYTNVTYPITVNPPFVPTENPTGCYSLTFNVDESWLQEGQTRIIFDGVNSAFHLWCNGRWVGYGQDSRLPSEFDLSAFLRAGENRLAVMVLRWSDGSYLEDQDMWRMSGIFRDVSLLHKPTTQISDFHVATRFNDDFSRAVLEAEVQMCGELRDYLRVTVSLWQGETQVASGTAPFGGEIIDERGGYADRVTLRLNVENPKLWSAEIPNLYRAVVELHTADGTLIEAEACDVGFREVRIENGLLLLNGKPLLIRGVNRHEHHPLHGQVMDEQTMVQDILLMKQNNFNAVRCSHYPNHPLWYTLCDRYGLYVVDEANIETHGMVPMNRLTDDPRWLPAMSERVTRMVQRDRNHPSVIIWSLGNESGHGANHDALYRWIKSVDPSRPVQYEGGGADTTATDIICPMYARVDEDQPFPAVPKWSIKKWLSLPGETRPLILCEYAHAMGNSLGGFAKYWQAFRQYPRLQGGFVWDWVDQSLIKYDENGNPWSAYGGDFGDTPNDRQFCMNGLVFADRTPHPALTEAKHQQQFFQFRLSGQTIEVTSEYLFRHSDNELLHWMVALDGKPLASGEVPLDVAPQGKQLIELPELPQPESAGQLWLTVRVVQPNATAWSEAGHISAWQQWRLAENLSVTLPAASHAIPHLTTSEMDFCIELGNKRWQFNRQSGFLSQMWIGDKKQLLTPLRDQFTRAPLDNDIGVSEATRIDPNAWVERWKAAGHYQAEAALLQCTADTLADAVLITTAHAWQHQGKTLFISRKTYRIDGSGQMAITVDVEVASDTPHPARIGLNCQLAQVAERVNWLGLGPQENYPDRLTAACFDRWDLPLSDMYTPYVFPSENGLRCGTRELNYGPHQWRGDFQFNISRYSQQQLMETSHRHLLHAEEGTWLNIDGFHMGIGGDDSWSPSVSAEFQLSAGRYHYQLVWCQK

In the case of `Cc1ccc(-c2nc(NCCCO)c3ccccc3n2)cc1`, the AC50 [1] is reported as 79.6 µM (active).
In the case of `Cc1ccc(S(=O)(=O)Nc2ccccc2C(=O)Nc2nc(-c3ccc(F)cc3)cs2)cc1`, the IC50 [2] is reported as 7.69 µM (active), the IC50 (Galanin receptor type 3) is reported as 1.44 µM (active) and the IC50 (Fatty acid synthase [3]) is reported as 10.7 µM (active). For the same molecule, the IC50 (Fatty acid synthase [4]) was 9.65 µM (active), the EC50 (cells) was > 29.9 µM (inactive) and the AC50 (INS1) was 2.97 µM (active). For the same molecule, the IC50 [5] was 62.2 µM (active).
For `Cc1ccc2sc(NNC(=O)c3cc(=O)c4ccccc4o3)nc2c1C`, the IC50 [2] was 4.17 µM (active), the EC50 (Streptococcus) was 2.5 µM (active) and the EC50 [6] was 0.744 µM (active). For the same molecule, the EC50 [7] was > 300 µM (not active), the EC50 [8] was > 300 µM (inconclusive) and the IC50 [5] was 17.7 µM (active).
For `O=C(c1cc2cc(F)ccc2[nH]1)N1CCN(Cc2ccc3c(c2)OCO3)CC1`, the EC50 [9] was > 112 µM (not active), the IC50 (Beta-galactosidase) was > 80 µM (inactive) and the EC50 [10] was > 112 µM (not active).
In the case of `CCc1nnc(NS(=O)(=O)c2ccc(/N=C/c3c(C)nn(-c4ccc(Cl)cc4)c3O)cc2)s1`, the IC50 [2] is reported as 6.87 µM (active) and the IC50 [5] is reported as 25.5 µM (active).
